The values that follow come from US20210115494A1, “Improved method for measurement of microbial biomass” (Mycometer A/S, priority 2018, published 2021).

Holding throughout (format): biochemical
The test system of experiment [1] is NAHA activity from Human skin cells. The experiment is described as follows: NAHA activity assay, human skin cells. As for the experimental part:
(§1) In order to determine NAHA activity in different samples, the technology in WO 98/033934 was employed: A sample containing a dried or freeze dried organism is added to a buffer solution containing 4-Methylumbelliferyl N-acetyl-β-D-glucosaminide in a concentration of 20 μM. The reaction-time is varied depending on the ambient temperature and according to a reaction-time/temperature data sheet previously developed for fungal NAHA activity at various temperatures, and is 30 minutes at 23° C. The resulting fluorescence formed during the reaction time is monitored in a calibrated fluorometer.
(§2) Experiments were conducted where varying concentrations of AgNO3 was added to an analysis substrate. Furthermore, the experiments where performed on dried or freeze dried materials where both intact and fragmented cells are to be expected to be present.
(§3) Experiments analogous to those in example 1 were carried out, but instead of using non-specific inhibitors, the effect of different concentrations of DNJNAc on the NAHA activity in various biomass containing samples was investigated.

Experiment [2] relates to NAHA activity from Aspergillus fumigatus freeze dried. The experiment is described as follows: NAHA activity assay, Aspergillus fumigatus freeze dried. To be noted: Aspergillus fumigatus (Freeze dried). The protocol:
as §1, §2, §3

The test system of experiment [3] is NAHA activity from Aureobasidium pullulans. The experiment is described as follows: NAHA activity assay, Aureobasidium pullulans. The protocol: as §1, §2, §3
The test system of experiment [4] is NAHA activity from Chaetomium globosum. The experiment is described as follows: NAHA activity assay, Chaetomium globosum. The protocol: as §1, §3

`CC(=O)N[C@H]1CN[C@H](CO)[C@@H](O)[C@@H]1O` [DNJNAc, 2-Acetamido-1,2-dideoxynojirimycin]: the “NAHA activity, 0 μM DNJNAc = 100%” value in experiment [1] (DNJNAc 24.5 μM) was 3%; in experiment [1] (DNJNAc 49 μM), 1%; in experiment [1] (DNJNAc 98 μM) it was 1%; in experiment [1] (DNJNAc 196 μM), 1%; in experiment [2] (DNJNAc 24.5 μM), 114%; in experiment [2] (DNJNAc 49 μM) it was 105%. For the same compound, the “NAHA activity, 0 μM DNJNAc = 100%” value in experiment [2] (DNJNAc 98 μM) is 104%; in experiment [2] (DNJNAc 196 μM), 96%; in experiment [3] (DNJNAc 24.5 μM), 56%; in experiment [3] (DNJNAc 49 μM), 67%; in experiment [3] (DNJNAc 98 μM) it was 50%; in experiment [3] (DNJNAc 196 μM), 27%. For the same compound, the “NAHA activity, 0 μM DNJNAc = 100%” value was found to be 88% in experiment [4] (DNJNAc 24.5 μM), 91% in experiment [4] (DNJNAc 49 μM), 92% in experiment [4] (DNJNAc 98 μM) and 81% in experiment [4] (DNJNAc 196 μM).
